Measured values taken from US20240246918A1, “COMPOUNDS AND COMPOSITIONS AS EIF4E INHIBITORS AND THE USES THEREOF” (Ribometrix, Inc., priority 2022, published 2024).

What was measured:
[1] = target: T1, human eIF4E protein (Homo sapiens, UniProt P06730); experiment: Biochemical competitive binding assay (TR-FRET competition, EDA-m7GDP-ATTO-647N probe); conditions: read-out: hEIF4E TR-FRET IC50
T1 construct: purchased Novus NBP-45314
Method in brief: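 His-tagged human eIF4E (4 nM) was preincubated with Eu-anti-His antibody (2.5 nM) and added to compound (11-point, 4-fold dilutions) for 15 min. Then 5 nM EDA-m7GDP-ATTO-647N was added for 15 min, in HEPES pH 7.5, 100 mM KCl. The 665/620 TR-FRET ratio was normalized to controls, and IC50 was taken from 4-parameter fits.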

[2] = tested on: COLO 205 colorectal tumor cells; experiment: Tumor cell viability inhibition assay (CellTiter-Glo 2.0, 72 hours); format: cell-based; conditions: COLO 205 cell viability
Method in brief: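 COLO 205 cells (1500/well, RPMI-1640 + 10% FBS) exposed for 72 h to an 11-point, 4-fold dilution series; cellular ATP read by CellTiter-Glo 2.0 luminescence. Data normalized to DMSO and maximum-inhibition controls; IC50 from 4-parameter curve fit.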

T1 sequence (P06730 whole entry): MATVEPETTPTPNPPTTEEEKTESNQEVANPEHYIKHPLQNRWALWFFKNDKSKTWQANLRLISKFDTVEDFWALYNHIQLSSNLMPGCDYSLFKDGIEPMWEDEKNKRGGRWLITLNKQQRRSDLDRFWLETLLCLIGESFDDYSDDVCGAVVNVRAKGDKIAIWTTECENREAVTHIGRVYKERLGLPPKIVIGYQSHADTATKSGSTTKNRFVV

In the case of Cc1cc(-c2cc(Cl)ccc2OCCn2c(C)nc3c(c2=O)C[C@@H](N2CCO[C@@H](CC(F)(F)F)C2)CC3)c2scc(C(=O)O)c2n1 (single isomer, unassigned) [Compound 524], the IC50 [1] is reported as < 0.1 µM and the IC50 ([2]; Homo sapiens, COLO 205, 72 h) is reported as < 5 µM.

In the case of CO[C@H]1CCN([C@H]2CCc3nc(C)n(CCOc4ccc(Cl)cc4-c4cc(C)nc5c(C(=O)O)csc45)c(=O)c3C2)CC1(C)C (single isomer, unassigned) [Compound 378], the IC50 [1] is reported as < 0.1 µM and the IC50 ([2]; Homo sapiens, COLO 205, 72 h) is reported as < 5 µM.

In the case of Cc1cc(-c2cc(Cl)ccc2OCCn2c(C)nc3c(c2=O)C[C@H](N2CC[C@H](C(F)F)C2)CC3)c2scc(C(=O)O)c2n1 (single isomer, unassigned) [Compound 122], the IC50 [1] is reported as < 0.1 µM and the IC50 ([2]; Homo sapiens, COLO 205, 72 h) is reported as < 5 µM.

In the case of Cc1cc(-c2cc(Cl)ccc2OCCn2c(C)nc3c(c2=O)CC(N2CCC4(CC2)CN(CC(F)(F)F)CC4(F)F)CC3)c2scc(C(=O)O)c2n1 (single isomer, unassigned) [Compound 529], the IC50 [1] is reported as < 0.1 µM and the IC50 ([2]; Homo sapiens, COLO 205, 72 h) is reported as < 5 µM.

In the case of Cc1nc2c(c(=O)n1CC#Cc1ccc(Cl)cc1-c1ccnc3c(C(=O)NS(C)(=O)=O)csc13)CC(N1CCC(OC(F)(F)F)CC1)CC2 (single isomer, unassigned) [Compound 601], the IC50 [1] is reported as < 0.1 µM and the IC50 [2] is reported as < 5 µM.

Cc1cc(-c2cc(Cl)ccc2OCCn2c(C)nc3c(c2=O)C[C@@H](N2CCCC[C@@H]2c2cccc(F)c2)CC32CC2)c2scc(C(=O)O)c2n1 (single isomer, unassigned) [Compound 629, 7-(5-chloro-2-(2-(6′-(2-(3-fluorophenyl)piperidin-1-yl)-2′-methyl-4′-oxo-6′,7′-dihydro-4′H-spiro[cyclopropane-1,8′-quinazolin]-3′(5′H)-yl)ethoxy)phenyl)-5-methylthieno[3,2-b]pyridine-3-carboxylic acid] showed an IC50 [1] of 0.5 to 5 µM and an IC50 ([2]; Homo sapiens, COLO 205, 72 h) of 5 to 20 µM.

Cc1cc(-c2cc(Cl)ccc2OCCn2c(C)nc3c(c2=O)C[C@H](N2CCC(C(F)(F)F)CC2)CC32CC2)c2scc(C(=O)O)c2n1 (single isomer, unassigned) [Compound 602] was tested, and the IC50 [1] was < 0.1 µM and the IC50 ([2]; Homo sapiens, COLO 205, 72 h) was < 5 µM.

Cc1cc(-c2cc(Cl)ccc2OCCn2c(C)nc3c(c2=O)C[C@H](N2CCC[C@@]4(C2)CC4(F)F)CC32CC2)c2scc(C(=O)O)c2n1 (single isomer, unassigned) [Compound 580] was tested, and the IC50 [1] was < 0.1 µM and the IC50 ([2]; Homo sapiens, COLO 205, 72 h) was < 5 µM.

For Cc1cc(-c2cc(Cl)ccc2OCCn2c(C)nc3c(c2=O)C[C@@H](N(C)[C@H]2CC[C@](C)(O)CC2)CC3)c2scc(C(=O)O)c2n1 (single isomer, unassigned) [Compound 226], the IC50 [1] was < 0.1 µM and the IC50 ([2]; Homo sapiens, COLO 205, 72 h) was > 20 µM.

In the case of Cc1cc(-c2cc(Cl)ccc2OCCn2c(C)nc3c(c2=O)C[C@@H](N2CC[C@@H](C(F)F)C2)CC3)c2scc(C(=O)O)c2n1 (single isomer, unassigned) [Compound 120], the IC50 [1] is reported as < 0.1 µM and the IC50 ([2]; Homo sapiens, COLO 205, 72 h) is reported as < 5 µM.

In the case of Cc1cc(-c2cc(Cl)ccc2OCCn2c(C)nc3c(c2=O)C[C@H](N2CCC[C@H](OC(F)(F)F)C2)CC3)c2scc(C(=O)O)c2n1 (single isomer, unassigned) [Compound 457], the IC50 [1] is reported as < 0.1 µM and the IC50 ([2]; Homo sapiens, COLO 205, 72 h) is reported as < 5 µM.

With CO[C@@H]1CCN([C@H]2CCc3nc(C)n(CCOc4ccc(Cl)cc4-c4cc(C)nc5c(C(=O)O)csc45)c(=O)c3C2)CC12CC2 (single isomer, unassigned) [Compound 521] the IC50 [1] was < 0.1 µM and the IC50 ([2]; Homo sapiens, COLO 205, 72 h) was 5 to 20 µM.

COC1CCN(C2CCc3nc(C)n(CC#Cc4ccc(Cl)cc4-c4ccnc5c(C(=O)NS(C)(=O)=O)csc45)c(=O)c3C2)CC1 (single isomer, unassigned) [Compound 414] was tested, and the IC50 [1] was < 0.1 µM and the IC50 ([2]; Homo sapiens, COLO 205, 72 h) was < 5 µM.

For Cc1cc(-c2cc(Cl)ccc2OCCn2c(C)nc3c(c2=O)CC(N2CCC(OC(F)(F)F)CC2)CC3)c2scc(C(=O)O)c2n1 (single isomer, unassigned) [Compound 135], the IC50 [1] was < 0.1 µM and the IC50 ([2]; Homo sapiens, COLO 205, 72 h) was < 5 µM.

Cc1cc(-c2cc(Cl)ccc2OCCn2c(C)nc3c(c2=O)C[C@@H](N2CCCC[C@H]2c2nccs2)CC3)c2scc(C(=O)O)c2n1 (single isomer, unassigned) [Compound 548] was tested, and the IC50 [1] was 0.1 to 0.5 µM and the IC50 ([2]; Homo sapiens, COLO 205, 72 h) was > 20 µM.

With Cc1cc(-c2cc(Cl)ccc2OCCn2c(C)nc3c(c2=O)C[C@H](N2CC[C@H](OC(F)(F)F)C(F)(F)C2)CC3)c2scc(C(=O)O)c2n1 (single isomer, unassigned) [Compound 404] the IC50 [1] was < 0.1 µM and the IC50 ([2]; Homo sapiens, COLO 205, 72 h) was 5 to 20 µM.

In the case of Cc1cc(-c2cc(Cl)ccc2OCCn2c(C)nc3c(c2=O)C[C@@H](N2CCC(Oc4ccc(F)cc4F)CC2)CC32CC2)c2scc(C(=O)O)c2n1 (single isomer, unassigned) [Compound 613], the IC50 [1] is reported as < 0.1 µM and the IC50 ([2]; Homo sapiens, COLO 205, 72 h) is reported as < 5 µM.

For Cc1cc(-c2cc(Cl)ccc2OCCn2c(C)nc3c(c2=O)C[C@H](N2C[C@@H]4CC(F)(F)C[C@@H]4C2)CC3)c2scc(C(=O)NS(C)(=O)=O)c2n1 (single isomer, unassigned) [Compound 368], the IC50 [1] was < 0.1 µM and the IC50 ([2]; Homo sapiens, COLO 205, 72 h) was < 5 µM.

Cc1cc(-c2cc(Cl)ccc2OCCn2c(C)nc3c(c2=O)C[C@@H](N2CCC(c4noc5ccc(F)cc45)CC2)CC3)c2scc(C(=O)O)c2n1 (single isomer, unassigned) [Compound 449] was tested, and the IC50 [1] was < 0.1 µM and the IC50 ([2]; Homo sapiens, COLO 205, 72 h) was < 5 µM.

For Cc1cc(-c2cc(Cl)ccc2OCCn2c(C)nc3c(c2=O)C[C@@H](N2CC4(CCC(F)(F)CC4)C2)CC3)c2scc(C(=O)O)c2n1 (single isomer, unassigned) [Compound 128], the IC50 [1] was < 0.1 µM and the IC50 ([2]; Homo sapiens, COLO 205, 72 h) was < 5 µM.

For Cc1cc(-c2cc(Cl)ccc2OCCn2c(C)nc3c(c2=O)C[C@@H](N2CC[C@H](OC(F)(F)F)C(C)(C)C2)CC3)c2scc(C(=O)O)c2n1 (single isomer, unassigned) [Compound 392], the IC50 [1] was < 0.1 µM and the IC50 ([2]; Homo sapiens, COLO 205, 72 h) was < 5 µM.

For Cc1cc(-c2cc(Cl)ccc2OCCn2c(C)nc3c(c2=O)C[C@H](N2CC[C@H](OC(F)(F)F)C2)CC3)c2scc(C(=O)O)c2n1 (single isomer, unassigned) [Compound 386], the IC50 [1] was < 0.1 µM and the IC50 ([2]; Homo sapiens, COLO 205, 72 h) was < 5 µM.

For Cc1cc(-c2cc(Cl)ccc2OCCn2c(C)nc3c(c2=O)CC(N2CCC4(CCN(CC(F)(F)F)C4)C2)CC3)c2scc(C(=O)O)c2n1 (single isomer, unassigned) [Compound 505], the IC50 [1] was < 0.1 µM and the IC50 ([2]; Homo sapiens, COLO 205, 72 h) was < 5 µM.

Work on Cc1cc(-c2cc(Cl)ccc2OCCn2c(C)nc3c(c2=O)C[C@@H](N2CCCC[C@@H]2c2cccc(C(F)(F)F)c2)CC3)c2scc(C(=O)O)c2n1 (single isomer, unassigned) [Compound 588] yielded an IC50 [1] of 0.1 to 0.5 µM and an IC50 ([2]; Homo sapiens, COLO 205, 72 h) of 5 to 20 µM.

With Cc1cc(-c2cc(Cl)ccc2OCCn2c(C)nc3c(c2=O)C[C@H](N2CCC(c4noc5ccc(F)cc45)CC2)CC3)c2scc(C(=O)O)c2n1 (single isomer, unassigned) [Compound 488] the IC50 [1] was < 0.1 µM and the IC50 ([2]; Homo sapiens, COLO 205, 72 h) was < 5 µM.

Cc1cc(-c2cc(Cl)ccc2OCCn2c(C)nc3c(c2=O)C[C@H](N(C)CC2CC(F)(F)C2)CC32CC2)c2scc(C(=O)O)c2n1 (single isomer, unassigned) [Compound 568] was tested, and the IC50 [1] was < 0.1 µM and the IC50 ([2]; Homo sapiens, COLO 205, 72 h) was < 5 µM.

For Cc1cc(-c2cc(Cl)ccc2OCCn2c(C)nc3c(c2=O)CC(C)(N(C)CC2CC(F)(F)C2)CC3)c2scc(C(=O)O)c2n1 (single isomer, unassigned) [Compound 599], the IC50 [1] was < 0.1 µM and the IC50 ([2]; Homo sapiens, COLO 205, 72 h) was 5 to 20 µM.

With COC1CCN(C2(C)CCc3nc(C)n(CCOc4ccc(Cl)cc4-c4cc(C)nc5c(C(=O)O)csc45)c(=O)c3C2)CC1 (centres unmarked) [Compound 114] the IC50 [1] was < 0.1 µM and the IC50 ([2]; Homo sapiens, COLO 205, 72 h) was < 5 µM.
